{"source": "paper PMC6271545", "about": "“Comparative Pharmacokinetics Study of Sinomenine in Rats after Oral Administration of Sinomenine Monomer and Sinomenium Acutum Extract” (Molecules, 2014)", "assay": "Pharmacokinetics of sinomenine in rat plasma after oral administration of sinomenine monomer and Sinomenium acutum extract", "settings": "male, Wistar"}
{"smiles": "COC1=C[C@H]2[C@H]3Cc4ccc(OC)c(O)c4[C@@]2(CCN3C)CC1=O", "note": "[Sinomenine, 7,8-didehydro-4-hydroxy-3,7-dimethoxy-17-methylmorphinane-6-one]", "values": [{"measurement": "AUC(0-inf)", "setting": "30 mg/kg", "value": "32800 ± 5370", "unit": "ng·h/mL"}, {"measurement": "AUC(0-t)", "setting": "30 mg/kg", "value": "29200 ± 4060", "unit": "ng·h/mL"}, {"measurement": "CL/F", "setting": "30 mg/kg", "value": 15.6, "unit": "mL/min/kg"}, {"measurement": "Cmax", "setting": "30 mg/kg", "value": "5240 ± 390", "unit": "ng/mL"}, {"measurement": "MRT inf", "setting": "30 mg/kg", "value": "7.3 ± 0.889", "unit": "h"}, {"measurement": "Tmax", "setting": "30 mg/kg", "value": "1.08 ± 0.204", "unit": "h"}, {"measurement": "half-life", "setting": "30 mg/kg", "value": "4.88 ± 0.635", "unit": "h"}, {"measurement": "AUC(0-inf)", "setting": "60 mg/kg", "value": "94000 ± 11200", "unit": "ng·h/mL"}, {"measurement": "AUC(0-t)", "setting": "60 mg/kg", "value": "78900 ± 5130", "unit": "ng·h/mL"}, {"measurement": "CL/F", "setting": "60 mg/kg", "value": 10.8, "unit": "mL/min/kg"}, {"measurement": "Cmax", "setting": "60 mg/kg", "value": "11600 ± 942", "unit": "ng/mL"}, {"measurement": "MRT inf", "setting": "60 mg/kg", "value": "8.8 ± 1.91", "unit": "h"}, {"measurement": "Tmax", "setting": "60 mg/kg", "value": "1.5 ± 0.316", "unit": "h"}, {"measurement": "half-life", "setting": "60 mg/kg", "value": "5.77 ± 1.59", "unit": "h"}]}
